Reference: patent US9216962B2 (priority 2011, dated 2015)

What follows are compounds tested against recombinant human HDAC1 (Homo sapiens (Human), UniProt Q13547). Settings: not given.
recombinant human HDAC1, sequence (Q13547 whole entry): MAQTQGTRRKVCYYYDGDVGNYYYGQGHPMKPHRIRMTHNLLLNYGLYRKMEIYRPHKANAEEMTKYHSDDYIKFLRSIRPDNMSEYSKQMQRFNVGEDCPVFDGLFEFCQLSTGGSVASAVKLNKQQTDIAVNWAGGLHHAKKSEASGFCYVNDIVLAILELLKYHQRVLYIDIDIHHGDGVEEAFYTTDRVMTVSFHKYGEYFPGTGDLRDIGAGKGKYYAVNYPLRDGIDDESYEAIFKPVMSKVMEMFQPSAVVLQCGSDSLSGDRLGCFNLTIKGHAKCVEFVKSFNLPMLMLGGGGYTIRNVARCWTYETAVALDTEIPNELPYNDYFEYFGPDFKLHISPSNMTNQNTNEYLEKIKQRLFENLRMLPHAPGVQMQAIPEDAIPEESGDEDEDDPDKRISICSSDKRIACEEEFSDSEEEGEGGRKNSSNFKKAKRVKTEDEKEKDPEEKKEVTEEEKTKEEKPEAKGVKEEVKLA

Row | Compound | HDAC1 IC50
1 | CC(C)Cc1sc(-c2nccs2)nc1C(=O)NCC(=O)NO [CFH340] | NA^a

Same assay, conditions: read-out: HDAC1 IC50

Row | Compound | IC50 [nM]
2 | CC(C)Cc1sc(-c2nccs2)nc1C(=O)NCCCCC(=O)Nc1ccccc1N [CFH494] | 5910
3 | O=C(CCCCNC(=O)c1nc(-c2ncc(-c3ccccc3)s2)sc1C1CC1)NO [CFH443-5] | 32
4 | Cc1nc(-c2nc(C(=O)NCCCCC(=O)NO)c(C3CC3)s2)sc1C [CFH395-M] | 50
5 | CC(C)Cc1sc(-c2nccs2)nc1C(=O)NCCCCCCC(=O)Nc1ccccc1N [CFH522] | 15300
6 | Cc1cnc(-c2nc(C(=O)NCCCCC(=O)NO)c(CC(C)C)s2)s1 [CFH397-2] | 917
7 | C=Cc1sc(-c2nccs2)nc1C(=O)NCCCNC(=O)CS [CFH367-S] | 1830
8 | CC(C)Cc1sc(-c2nccs2)nc1C(=O)NCCCCCCC(=O)NO [CFH410] | 178
9 | Cc1nc(-c2nc(C(=O)NCCCCC(=O)NO)c(CC(C)C)s2)cs1 [CFH397] | 438
10 | CC(C)/C=C/c1sc(-c2nccs2)nc1C(=O)NCCCNC(=O)CS [CFH411] | 956
11 | CC(C)Cc1sc(-c2nccs2)nc1C(=O)Nc1cccc(/C=C/C(=O)NO)c1 [CFH429] | 657
12 | CC(C)Cc1sc(-c2nccs2)nc1C(=O)NCCCCCC(=O)Nc1ccccc1N [CFH508] | 984
